Results: article PMC7118210 (Frontiers in Pharmacology, 2020)
Where two headings read alike, the source gives them in different places.

Experiment: Single-dose pharmacokinetics in dogs (plasma, UHPLC/MS/MS)
Type: in vivo, Beagle dogs
Conditions: for MRT last: read-out: MRT0-t; for MRT inf: read-out: MRT0-∞
Description: Sixty healthy adult Sprague Dawley rats (180-220 g, half male and female) were purchased from the Guangdong Medical Laboratory Animal Center (Guangzhou, Guangdong, China). Thirty Beagle dogs (10-14 kg, half male and female) were purchased from the […] Laboratory Animal Science & Technology Co., Ltd. (Gaoyao, Guangdong, China). All animals were housed under humanized conditions with free access to food and water, and acclimated to the living conditions for at least one week prior to experimentation at the Laboratory Animal Center of the School of Life Sciences, Sun Yat-sen University. Environmental conditions were maintained at 20°C-25°C, 55% ± 15% relative humidity, 12-h light/dark cycles, and 12 air changes per hour. Prior to experimentation, the animals were fasted overnight with water available ad libitum. All animals were healthy based on physical examination and laboratory analyses performed before and after the experiments. At the end of the experiments, the dogs were returned to the Laboratory Animal Center of School of Life Sciences, Sun Yat-sen University. […] All blood samples were transferred into heparin-treated centrifuge tubes and centrifuged for 10 min at 4,000 rpm and 4°C. All human urine samples were mixed and transferred (4 ml) into storage tubes. All biological samples were stored at -80°C. […] The optimal volume and activity in unit volume of enzyme solution [0.2 M acetic acid/water solution: 0.2 M ammonium acetate/water solution, 15:35 (v/v)] were determined through a pretest of the enzyme (rat plasma, 10 μl, 10 U μl^-1; dog plasma, 10 μl, 10 U μl^-1; human plasma, 20 μl, 20 U μl^-1; human urine, 10 μl, 10 U μl^-1). After enzyme incubation, 10 μl of IS solution was added to the plasma and urine samples (2 μg ml^-1 quercetin 3-β-D-glucoside for rat and dog plasma; 583 ng ml^-1 naringin-D4 and 160 ng ml^-1 naringenin-D4 for human plasma; and 9,710 ng ml^-1 naringin-D4 and 6,000 ng ml^-1 naringenin-D4 for human urine). To each fecal sample, 9-fold methanol-normal saline (2:1, v/v) was added, mixed (18,000 rpm, 15 min) by vortexing and centrifuged (10 min, 9,000 rpm, 4°C). Next, 10 μl IS solution (971 ng ml^-1 naringin-D4 and 600 ng ml^-1 naringenin-D4) was added to the supernatants of feces (200 μl) without enzyme incubation. […] The solid material was dissolved with acetonitrile-water (1:1, v/v) and injected into the ultra high-performance liquid chromatography coupled with triple quadrupole mass spectrometry (UHPLC/MS/MS) system as described below. The analysis of nonclinical and clinical samples was performed with a UHPLC/MS/MS system that consisted of a Shimadzu Nexera X2 ultra high-performance liquid chromatography (UHPLC) (Shimadzu Corp., Kyoto, Japan) coupled with an AB Sciex API4000 triple-quadrupole mass spectrometry (MS/MS) system (AB Sciex, Foster City, CA, USA) equipped with an electrospray ionization source and controlled by Analyst (v. 1.6.2) software. […] The injection volume was 10 μl with the flow rate of 0.3 ml min^-1 for plasma, and 0.4 ml min^-1 for urine and feces. The compounds were detected by multiple reaction monitoring in the negative ion electrospray mode. The electrospray source conditions were as follows: ion source gas1 30 psi, ion source gas2 60 psi, curtain gas 20 psi, collisionally activated dissociation (CAD) gas 8 psi, temperature 500°C, and ion spray voltage -4,500 V. Zero air was used for ion source gas1 and ion source gas2 and nitrogen for curtain gas and CAD gas. […] All pharmacokinetic and excretion parameters were expressed as mean ± standard deviation (SD). All mean and SD values were reported to three significant figures. The pharmacokinetic parameters were calculated using the Phoenix WinNonlin software (Version 6.4, Pharsight Corp., Cary, NC, USA) and compared using the Student's t-test (p < 0.05) in SPSS 18.0 (SPSS Inc., Chicago, IL, USA). […]

[1] = both sexes, Beagle, dog, plasma, po, 3.1 mg/kg
[2] = both sexes, Beagle, dog, plasma, po, 12.4 mg/kg
[3] = both sexes, beagle, dog, plasma, iv, 12.4 mg/kg
[4] = both sexes, beagle, dog, plasma, po, 49.6 mg/kg
[5] = female, Beagle, dog, plasma, iv, 12.4 mg/kg
[6] = female, Beagle, dog, plasma, po, 3.1 mg/kg
[7] = female, Beagle, dog, plasma, po, 12.4 mg/kg
[8] = female, Beagle, dog, plasma, po, 49.6 mg/kg
[9] = male, Beagle, dog, plasma, iv, 12.4 mg/kg
[10] = male, Beagle, dog, plasma, po, 3.1 mg/kg
[11] = male, Beagle, dog, plasma, po, 12.4 mg/kg
[12] = male, Beagle, dog, plasma, po, 49.6 mg/kg
[13] = naringin 3.1 mg kg^-1 p.o. single dose, dog
[14] = naringin 12.4 mg kg^-1 p.o. single dose, dog
[15] = naringin 49.6 mg kg^-1 p.o. single dose, dog

C[C@@H]1O[C@@H](O[C@H]2[C@H](Oc3cc(O)c4c(c3)O[C@H](c3ccc(O)cc3)CC4=O)O[C@H](CO)[C@@H](O)[C@@H]2O)[C@H](O)[C@H](O)[C@H]1O [naringin, Naringin]
half-life (both sexes, Beagle, dog, plasma, po): 84.6 ± 40.3 min
AUC(0-inf) [1]: 129 ± 78.2 ng·h/mL
AUC(0-t) [1]: 108 ± 58.8 ng·h/mL
Cmax [1]: 39.9 ± 10.4 ng/mL
Tmax [1]: 1.33 ± 0.258 h
half-life [1]: 110 ± 87.6 min
MRT last [1]: 2.5 ± 1.05 h
MRT inf [1]: 3.38 ± 1.88 h
AUC(0-inf) [2]: 135 ± 35.5 ng·h/mL
AUC(0-t) [2]: 124 ± 32.2 ng·h/mL
Cmax [2]: 70.2 ± 16.9 ng/mL
Tmax [2]: 1 ± 0.316 h
half-life [2]: 78.6 ± 34.9 min
MRT last [2]: 1.77 ± 0.371 h
MRT inf [2]: 2.17 ± 0.633 h
Tmax (both sexes, Beagle, dog, plasma, po, dogs, nonclinical p.o. administration studies overall): 1.11 ± 0.344 h
AUC(0-inf) [3]: 2930 ± 403 ng·h/mL
AUC(0-t) [3]: 2920 ± 406 ng·h/mL
Cmax [3]: 5800 ± 946 ng/mL
Tmax [3]: 0.08 h
clearance [3]: 71.8 mL/min/kg
half-life [3]: 82.2 ± 20.8 min
MRT last [3]: 0.703 ± 0.153 h
MRT inf [3]: 0.727 ± 0.143 h
Vd (both sexes, beagle, dog, plasma, iv, 12.4 mg/kg, read-out: Vd): 8.69 ± 3.35 L/kg
AUC(0-inf) [4]: 224 ± 104 ng·h/mL
AUC(0-t) [4]: 211 ± 92.1 ng·h/mL
Cmax [4]: 107 ± 78.2 ng/mL
Tmax [4]: 1 ± 0.447 h
half-life [4]: 78.6 ± 17.6 min
MRT last [4]: 2.46 ± 1.11 h
MRT inf [4]: 2.73 ± 1.02 h
AUC(0-inf) [5]: 3200 ± 337 ng·h/mL
AUC(0-t) [5]: 3190 ± 344 ng·h/mL
Cmax [5]: 5860 ± 1070 ng/mL
Tmax [5]: 0.08 h
half-life [5]: 75 ± 19 min
AUC(0-inf) [6]: 109 ± 67.7 ng·h/mL
AUC(0-t) [6]: 88.5 ± 40 ng·h/mL
Cmax [6]: 36.8 ± 12.6 ng/mL
Tmax [6]: 1.17 ± 0.289 h
half-life [6]: 75.6 ± 38 min
AUC(0-inf) [7]: 132 ± 36.8 ng·h/mL
AUC(0-t) [7]: 115 ± 27.9 ng·h/mL
Cmax [7]: 60.2 ± 10.8 ng/mL
Tmax [7]: 1 ± 0.1 h
half-life [7]: 85.2 ± 46.9 min
AUC(0-inf) [8]: 262 ± 144 ng·h/mL
AUC(0-t) [8]: 240 ± 128 ng·h/mL
Cmax [8]: 157 ± 87.5 ng/mL
Tmax [8]: 1.17 ± 0.289 h
half-life [8]: 67.8 ± 18.7 min
AUC(0-inf) [9]: 2640 ± 255 ng·h/mL
AUC(0-t) [9]: 2640 ± 256 ng·h/mL
Cmax [9]: 5740 ± 1050 ng/mL
Tmax [9]: 0.08 h
half-life [9]: 88.8 ± 24.2 min
AUC(0-inf) [10]: 149 ± 97.4 ng·h/mL
AUC(0-t) [10]: 128 ± 76.6 ng·h/mL
Cmax [10]: 42.9 ± 9.19 ng/mL
Tmax [10]: 1.5 ± 0.231 h
half-life [10]: 145 ± 119 min
AUC(0-inf) [11]: 137 ± 42.3 ng·h/mL
AUC(0-t) [11]: 132 ± 40 ng·h/mL
Cmax [11]: 80.2 ± 17.2 ng/mL
Tmax [11]: 1 ± 0.5 h
half-life [11]: 72 ± 26.6 min
AUC(0-inf) [12]: 185 ± 45.5 ng·h/mL
AUC(0-t) [12]: 181 ± 46.7 ng·h/mL
Cmax [12]: 56.6 ± 6.83 ng/mL
Tmax [12]: 0.833 ± 0.577 h
half-life [12]: 90 ± 7.02 min
CL [13]: 31.2 ± 15.4 L/h/kg
Vd [13]: 61.2 ± 23.0 L/kg
CL [14]: 98.0 ± 27.2 L/h/kg
Vd [14]: 171 ± 59.4 L/kg
CL [15]: 267 ± 127 L/h/kg
Vd [15]: 482 ± 173 L/kg

O=C1C[C@@H](c2ccc(O)cc2)Oc2cc(O)cc(O)c21 [naringenin, Naringenin]
half-life (both sexes, Beagle, dog, plasma, oral, naringenin in dogs, studies overall): 122 ± 58.1 min
lag-time in plasma (dogs, after p.o. naringin): 1.83 ± 0.923 h
time for concentrations to increase to Cmax after the lag-time (dogs, after p.o. naringin): 4.17 ± 1.68 h
